From ChEMBL document CHEMBL1136443, “Structure-activity relationship of benzo[b]thiophene-2-sulfonamide derivatives as novel human chymase inhibitors” (Bioorg Med Chem Lett, 2003)

Legend:
[1] = species on record: Rattus norvegicus; test: Percentage of compound present in rat plasma after incubation for 60 min at 37 degree C; assay type: functional, organism-based
[2] = In vitro inhibitory activity against human elastase
[3] = target: T1, Cathepsin G (Homo sapiens, UniProt P08311); test: In vitro inhibitory activity against human cathepsin G
T1 sequence (P08311 whole entry): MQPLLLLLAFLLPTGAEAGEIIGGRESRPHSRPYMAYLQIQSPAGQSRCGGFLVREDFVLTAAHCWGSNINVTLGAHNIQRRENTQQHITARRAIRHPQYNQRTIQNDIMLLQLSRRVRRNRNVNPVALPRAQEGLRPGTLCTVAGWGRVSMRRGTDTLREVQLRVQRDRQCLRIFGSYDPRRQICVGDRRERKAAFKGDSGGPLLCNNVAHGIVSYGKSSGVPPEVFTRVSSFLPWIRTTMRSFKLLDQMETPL

[4] = target: T2, Chymase (Homo sapiens, UniProt P23946); test: In vitro inhibitory activity against human chymase
T2 sequence (P23946 whole entry): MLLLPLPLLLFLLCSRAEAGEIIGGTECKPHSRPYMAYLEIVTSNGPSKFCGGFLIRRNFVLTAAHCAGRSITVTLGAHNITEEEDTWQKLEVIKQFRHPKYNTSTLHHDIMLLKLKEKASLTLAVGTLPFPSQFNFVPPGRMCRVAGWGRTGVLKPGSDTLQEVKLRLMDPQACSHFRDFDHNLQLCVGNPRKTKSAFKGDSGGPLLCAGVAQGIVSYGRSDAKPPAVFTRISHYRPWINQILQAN

[5] = target: T2, Chymase; test: In vitro inhibitory activity against human chymase; NI Indicates no inhibition at 10 uM

Compound COC(=O)c1ccc(NS(=O)(=O)c2sc3ccc(F)cc3c2C)c(S(C)(=O)=O)c1 has a Stability [1] of 74.3%, an IC50 [2] of over 10000 nM and an IC50 [3] of over 10000 nM.

Compound Cc1c(S(=O)(=O)Nc2ccc(C=O)cc2S(C)(=O)=O)sc2ccc(F)cc12 has an IC50 [4] of over 1000 nM.

Cc1c(S(=O)(=O)Nc2ccc(CO)cc2S(C)(=O)=O)sc2ccc(F)cc12 gave an IC50 [4] of 337 nM.

CC(=O)c1ccc(NS(=O)(=O)c2sc3ccc(F)cc3c2C)c(S(C)(=O)=O)c1 showed a Stability [1] of 96.2%, an IC50 [2] of over 10000 nM and an IC50 [3] of over 10000 nM.

In the case of Cc1c(S(=O)(=O)Nc2ccc(C(=O)O)cc2S(C)(=O)=O)sc2ccc(F)cc12, the IC50 [4] is reported as over 1000 nM.

With Cc1c(S(=O)(=O)Nc2ccc(C(N)=O)cc2S(C)(=O)=O)sc2ccc(F)cc12 the IC50 [4] was over 1000 nM.

COC(=O)c1ccc(NS(=O)(=O)c2sc3ccc(Cl)cc3c2C)c(S(C)(=O)=O)c1 gave a Stability [1] of 93.9%, an IC50 [2] of over 10000 nM and an IC50 [3] of over 10000 nM.

For COC(=O)c1ccc(NS(=O)(=O)c2sc3ccc(Cl)cc3c2C)c(C(=O)OC)c1, the IC50 [5] was “No inhibition”.

COCc1ccc(NS(=O)(=O)c2sc3ccc(F)cc3c2C)c(S(C)(=O)=O)c1 gave an IC50 [4] of 192 nM.

In the case of CCCS(=O)(=O)c1ccc(NS(=O)(=O)c2sc3ccc(Cl)cc3c2C)cc1, the IC50 [4] is reported as 10600 nM.

In the case of Cc1c(S(=O)(=O)Nc2ccc([N+](=O)[O-])cc2)sc2ccc(Cl)cc12, the IC50 [5] is reported as “No inhibition”.

With COC(=O)c1ccc(NS(=O)(=O)c2sc3ccc(C)cc3c2C)c(S(C)(=O)=O)c1 the IC50 [4] was 325 nM.

For Cc1c(S(=O)(=O)Nc2ccc(C#N)cc2)sc2ccc(Cl)cc12, the IC50 [5] was “No inhibition”.

COC(=O)c1ccc(NS(=O)(=O)c2sc3ccc(Cl)cc3c2C)c(S(C)(=O)=O)c1C gave an IC50 [4] of 594 nM.

With CCCSc1ccc(NS(=O)(=O)c2sc3ccc(Cl)cc3c2C)cc1 the IC50 [5] was “No inhibition”.
